Patent US7767671B2, “3-Quinolinecarbonitrile protein kinase inhibitors” (Wyeth, priority 2004, dated 2010)
pIC50: −log10 of the molar value. Structures can show the parent of a compound that is named as a salt.

How the values were obtained:
LoVo = experiment: Cell based screen for inhibitors of Raf and/or Mek kinase (SRB), LoVo; set-up: species or system human; conditions: LoVo cells, four days incubation, (a)/(b)/(c) = average of two/three/five runs
Protocol: (§1) Cell Based Screen for Inhibitors of Raf and/or Mek Kinase. Materials
Cell Lines: Human adenocarcinoma cell line LoVo, known to be growth inhibited by low nM concentrations of a reference standard inhibitor of Ras and human adenocarcinoma cell line CaCo-2, known to be growth resistant to the same reference compound.
Cell Media: RPMI 1640 with 10% Fetal Bovine Serum supplemented with L-glutamine and Penicillin/Streptomycin.
(§2) Cells are plated at 2000 cells per well for cell line LoVo and 1500 cells for cell line CaCo-2 in 96 well plates. Cells are plated in media (200 μl) and allowed to adhere overnight at 37° C. At 24 hours post plating, compounds are added directly at a volume of 0.5 μl. For the qualitative screen (compounds screened at 25 μM) compound is added directly to cells. For the quantitative screen, compound is first diluted in DMSO to generate concentrations of compound or reference standard of: 1, 5, 10 and 25 μM. It is advisable to make the dilutions in an identical 96 well plate so that compounds can be added using a multichannel micropipettor set at 0.5 μl. The cells are then incubated for four days after which the media is removed using a 12 well manifold by first tipping the plate forward at a 45 degree angle and then inserting the manifold in an upright orientation to prevent the tips of the manifold from disturbing cells at the bottom of the plate. 200 μl of normal saline is then added to each well using an 8 well multichannel pipettor, followed by the careful addition of 50 μl of 50% TCA. The plates are then incubated for 2 hours at 4° C., after which the supernatant is removed using the same technique as above and the plated cells are washed twice with 200 μl water. The plates are then air dried and 50 μl of SRB stock solution is carefully added so that the entire bottom of each well is covered. This again can be done using an 8 well multichannel pipettor. The SRB is incubated with fixed cells for 15 minutes at room temperature after which the SRB is removed with the manifold as described above and the plates washed twice with 350 μl of 1% acetic acid per well each time. The plates are then air dried after which the bound SRB is released from protein by the addition of 200 μl of Tris base. Resolubilizing the SRB is aided by placing the plates on a rotator for 15-30 minutes. The absorbance of each well is determined at 550 or 562 nm using a microtiter plate reader.
(§3) Each compound or dilution thereof is performed in triplicate. Outliers are identified by visual inspection of the data. Each plate should have a “0” control (vehicle only).
(§4) Quantitative Assay: A standard curve is constructed by plotting the concentration of compound against the average absorbance calculated at that concentration. A curve is plotted and the concentration at which the curve passes through the 50% the absorbance mark seen in the “0” control well is the IC50 calculated for that compound. Multiple entries for a given compound indicate that it is tested multiple times.

[1] = target: T1, Raf and/or Mek kinase (human c-Raf, GST-MEK1) (Homo sapiens, UniProt P04049+Q02750); experiment: Raf/Mek kinase cascade assay; type: biochemical; conditions: c-Raf dependent activation of GST-MEK and GST-MAPK, phospho-MAPK ELISA; (a)/(b)/(c) = average of two/three/four runs
T1 construct: Sf9 insect cell lysate containing full length 6his-tagged recombinant human c-Raf; 6His; host or cells: Sf9 insect cells (c-Raf, used as lysate); E. coli (MEK1-GST, GST-MAPK)
T1 sequence (P04049 whole entry): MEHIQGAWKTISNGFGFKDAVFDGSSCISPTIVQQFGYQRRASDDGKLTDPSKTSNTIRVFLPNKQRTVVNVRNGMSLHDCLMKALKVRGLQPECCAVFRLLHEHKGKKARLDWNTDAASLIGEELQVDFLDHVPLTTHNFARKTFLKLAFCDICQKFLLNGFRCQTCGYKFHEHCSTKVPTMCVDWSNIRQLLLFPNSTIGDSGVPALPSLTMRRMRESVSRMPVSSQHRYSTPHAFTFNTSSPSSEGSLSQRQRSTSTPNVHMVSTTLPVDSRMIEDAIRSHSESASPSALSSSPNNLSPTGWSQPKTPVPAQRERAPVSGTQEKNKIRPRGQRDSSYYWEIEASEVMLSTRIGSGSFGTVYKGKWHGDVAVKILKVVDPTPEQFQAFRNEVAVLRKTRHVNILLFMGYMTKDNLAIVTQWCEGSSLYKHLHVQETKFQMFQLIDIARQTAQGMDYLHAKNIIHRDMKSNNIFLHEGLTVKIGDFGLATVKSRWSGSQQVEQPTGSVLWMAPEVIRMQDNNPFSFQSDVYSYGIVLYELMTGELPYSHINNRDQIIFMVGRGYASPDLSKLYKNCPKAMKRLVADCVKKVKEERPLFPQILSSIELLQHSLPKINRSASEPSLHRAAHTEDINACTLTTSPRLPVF
T1 sequence (Q02750 whole entry): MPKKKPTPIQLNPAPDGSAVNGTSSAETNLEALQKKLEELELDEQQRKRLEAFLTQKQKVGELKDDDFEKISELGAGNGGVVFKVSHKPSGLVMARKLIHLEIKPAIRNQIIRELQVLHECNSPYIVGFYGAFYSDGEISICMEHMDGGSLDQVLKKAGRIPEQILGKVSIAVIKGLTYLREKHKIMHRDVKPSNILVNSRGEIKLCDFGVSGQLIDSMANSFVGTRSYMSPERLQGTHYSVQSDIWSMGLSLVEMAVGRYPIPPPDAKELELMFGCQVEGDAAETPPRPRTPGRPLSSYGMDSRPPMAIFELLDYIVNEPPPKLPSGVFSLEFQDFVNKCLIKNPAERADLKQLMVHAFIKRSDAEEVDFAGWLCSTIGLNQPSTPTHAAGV
Protocol: Raf/Mek Kinase Cascade Assay Procedure
(Specific Activity: ˜200 U/ml). Human Non-active Mek-1-GST and human GST-MAP kinase (recombinant proteins produced in E. coli).
Stock Solutions Raf/Mek Cascade Assay:
• 1. Assay Dilution Buffer (ADB): 20 mM MOPS, pH 7.2, 25 mM β-glycerol phosphate, 5 mM EGTA, 1 mM sodium orthovanadate, 1 mM dithiothreitol; • 2. Magnesium/ATP Cocktail: 500 μM cold ATP and 75 mM magnesium chloride in ADB; • 3. Active Kinase: Human Active c-Raf: Use at 0.4 U per assay point; • 4. Non-active GST-MEK1: Use at 0.1 μg per assay point; and • 5. Non-active GST-p42 MAP Kinase: Use at 1.0 μg per assay point. Stock Solutions ELISA: • 1. TBST-Tris (50 mM, pH 7.5), NaCl (150 mM), Tween-20 (0.05%); • 2. Superblock (Pierce); • 3. Anti-GST Ab (Pharmacia); • 4. Anti-Phospho MAPK (Sigma); and • 5. Anti-Mouse Ab/Europium conjugate (Wallac). Assay Procedure: First Stage: c-Raf Dependent Activation of GST-MEK and GST-MAPK • 1. Add […] of ADB per assay (i.e. per well of a 96 well plate); • 2. Add 10 ml of 0.5 mM cold ATP and 75 mM magnesium chloride in ADB; • 3. Add 2 ml of c-Raf (0.4 U/assay), in conjunction with 1.6 ml non-active MEK1 (0.4 […]/assay); • 4. Add 4 ml of non-active GST-p42 MAP Kinase (1.0 mg/assay); • 5. Incubate for 60 minutes at 30° C. in a shaking incubator; • 6. Transfer this mixture to an anti-GST Ab coated 96 well plate (Nunc Immunosorb plates coated o/n with a-GST, then blocked with Pierce Superblock); • 7. Incubate for 60 minutes at 30° C. in a shaking incubator; • 8. Wash 3× with TBST, add Anti-Phospho MAPK (Sigma) (1:3000); • 9. Incubate for 60 minutes at 30° C. in a shaking incubator; • 10. Wash 3× with TBST, add Anti-Mouse Ab/Europium conjugate (Wallac) (1:500); • 11. Incubate for 60 minutes at 30° C. in a shaking incubator; • 12. Wash 3× with TBST, Read plates in Wallac Victor model Plate Reader; and • 13. Collect data analyze in Excel for single point and IC50 determinations.
Single point assay—% inhibition at […] (% Inhibition=1−cpd·treated sample/untreated control). IC50 determinations—done on compounds from single point assays with >80% inhibition. Typically, the Raf/Mek assay is run at compound concentrations from 10 μM to 1 nM in half log dilutions. (% inhibition is determined for each compound concentration). The results obtained measure Raf and/or Mek kinase inhibition, and for representative compounds of this invention are listed in Table 1.

BxPC3 = experiment: Cell based screen for inhibitors of Raf and/or Mek kinase (SRB), BxPC3; conditions: Homo sapiens, BXPC-3, BxPC3 cells, (a)/(b) = average of two/three runs
Protocol: [The procedure below names another cell line; the source lists this cell line under the same test.] as §1, §2, §3, §4

SMILES	pIC50 (LoVo)	pIC50 [1]	pIC50 (LoVo; Homo sapiens, 96 h)	pIC50 (BxPC3)	melting point
COc1cc2c(Nc3ccc(Sc4nccn4C)c(Cl)c3)c(C#N)cnc2cc1N1CCC(N2CCCCC2)CC1 [Example 19]	8.10	6.70	–	–	–
COc1cc2c(Nc3ccc(Sc4nccn4C)c(Cl)c3)c(C#N)cnc2cc1N1CCN(CCn2ccnc2)CC1 [Example 23, 4-({3-Chloro-4-[(1-methyl-1H-imidazole-2-yl)thio]phenyl}amino)-7-{4-[2-(1H-imidazole-1-yl)ethyl]piperazin-1-yl}-6-methoxyquinoline-3-carbonitrile]	–	6.73	6.32	–	251 to 253 °C
COc1cc2c(Nc3ccc(Oc4cccnc4)cc3)c(C#N)cnc2cc1N1CCC(N2CCCC2)CC1 [Example 15, 6-Methoxy-4-[4-(pyridin-3-yloxy)-phenylamino]-7-(4-pyrrolidin-1-yl-piperidin-1-yl)-quinoline-3-carbonitrile]	–	5.76	6.58	6.44	194 to 196 °C
CCOc1cc2c(Nc3ccc(Sc4nccn4C)c(Cl)c3)c(C#N)cnc2cc1N1CCC(N2CCCC2)CC1 [Example 18, 4-({3-chloro-4-[(1-methyl-1H-imidazole-2-yl)thio]phenyl}amino)-6-ethoxy-7-(4-pyrrolidin-1-ylpiperidin-1-yl)quinoline-3-carbonitrile]	–	7.12	7.57	7.52	203 to 207 °C
COc1cc2c(Nc3ccc(Sc4nccn4C)c(Cl)c3)c(C#N)cnc2cc1N1CCN(C2CCN(C)CC2)CC1 [Example 22, 4-({3-Chloro-4-[(1-methyl-1H-imidazole-2-yl)thio]phenyl}amino)-6-methoxy-7-[4-(1-methylpiperidin-4-yl)piperazin-1-yl]quinoline-3-carbonitrile]	–	6.56	7.10	–	220 to 226 °C
COc1cc2c(Nc3ccc(Sc4ccccn4)c(Cl)c3)c(C#N)cnc2cc1N1CCC(N2CCCC2)CC1 [Example 14, 4-[3-Chloro-4-(pyridin-2-ylsulfanyl)-phenylamino]-6-methoxy-7-(4-pyrrolidin-1-yl-piperidin-1-yl)-quinoline-3-carbonitrile]	–	6.10	6.43	6.52	203 to 205 °C
Cn1ccnc1Sc1ccc(Nc2c(C#N)cnc3cc(N4CCC(N5CCCC5)CC4)ccc23)cc1Cl [Example 16]	–	7.46	8.05	7.52	125 to 130 °C
CC(=O)Nc1cc2c(Nc3ccc(Sc4nccn4C)c(Cl)c3)c(C#N)cnc2cc1N1CCC(N2CCCC2)CC1 [Example 29, N-[4-({3-Chloro-4-[(1-methyl-1H-imidazole-2-yl)thio]phenyl}amino)-3-cyano-7-(4-pyrrolidin-1-ylpiperidin-1-yl)quinolin-6-yl]acetamide]	–	5.78	8.40	8.10	243 to 255 °C
COc1cc2c(Nc3ccc(Sc4nccn4C)c(Cl)c3)c(C#N)cnc2cc1N1CCC(N2CCOCC2)CC1 [Example 21, 4-({3-Chloro-4-[(1-methyl-1H-imidazole-2-yl)thio]phenyl}amino)-6-methoxy-7-(4-morpholin-4-ylpiperidin-1-yl)quinoline-3-carbonitrile]	–	6.74	7.70	–	219 to 221 °C

Further compounds by rising pIC50 [1], results first:

pIC50 (LoVo)	pIC50 [1]	pIC50 (LoVo; Homo sapiens, 96 h)	pIC50 (BxPC3)	melting point	SMILES
–	5.62	7.85	8.10	245 to 247 °C	CC(=O)N(C(C)=O)c1cc2c(Nc3ccc(Sc4nccn4C)c(Cl)c3)c(C#N)cnc2cc1N1CCC(N2CCCC2)CC1 [Example 28, N-Acetyl-N-[4-[3-chloro-4-(1-methyl-1H-imidazole-2-ylsulfanyl)-phenylamino]-3-cyano-7-(4-pyrrolidin-1-yl-piperidin-1-yl)quinolin-6-yl]acetamide]
–	6.49	7.51	–	238 to 241 °C	COCCOc1cc2c(Nc3ccc(Sc4nccn4C)c(Cl)c3)c(C#N)cnc2cc1N1CCC(N2CCCC2)CC1 [Example 17, 4-({3-Chloro-4-[(1-methyl-1H-imidazole-2-yl)thio]phenyl}amino)-6-(2-methoxyethoxy)-7-(4-pyrrolidin-1-ylpiperidin-1-yl)quinoline-3-carbonitrile]
–	6.53	7.66	7.42	235 to 237 °C	COc1cc2c(Nc3ccc(Sc4nccn4C)c(Cl)c3)c(C#N)cnc2cc1N1CCC(N2CCN(C)CC2)CC1 [Example 20, 4-({3-Chloro-4-[(1-methyl-1H-imidazole-2-yl)thio]phenyl}amino)-6-methoxy-7-[4-(4-methylpiperazin-1-yl)piperidin-1-yl]quinoline-3-carbonitrile]
–	6.66	7.85	7.52	242 to 250 °C	CNc1cc2c(Nc3ccc(Sc4nccn4C)c(Cl)c3)c(C#N)cnc2cc1N1CCC(N2CCCC2)CC1 [Example 30, 4-({3-Chloro-4-[(1-methyl-1H-imidazole-2-yl)thio]phenyl}amino)-6-(methylamino)-7-(4-pyrrolidin-1-ylpiperidin-1-yl)quinoline-3-carbonitrile]
–	6.68	6.34	5.85	–	COc1ccccc1Oc1ccc(Nc2c(C#N)cnc3cc(N4CCC(N5CCCC5)CC4)c(OC)cc23)cc1 [Example 12, 6-Methoxy-4-{[4-(2-methoxyphenoxy)phenyl]amino}-7-(4-pyrrolidin-1-ylpiperidin-1-yl)quinoline-3-carbonitrile, trifluoroacetate salt]
